From ChEMBL document CHEMBL1201862, “PubChem BioAssay data set” (2004)
Each block holds one compound with its values, some of them ahead of it. The source made the active and inactive calls.

Legend:
[1] = inhibitors of firefly luciferase expression or activity, dose response, H4 neuroglioma cells, luminescence (AID 1990); type: functional, cell-based
HEK293 = experiment: NOD2 signaling inhibitors in MDP-stimulated cells, cell-based, uHTS, luminescence (AID 2001); type: functional; conditions: Homo sapiens
Phospholipase A2 = Phospholipase A2 (Homo sapiens, UniProt P04054); type: functional;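 also: confirmatory dose-response counterscreen on phospholipase A2, testing hits that came from an ultra-high-throughput screen for ATG4B inhibitors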
[2] = control 3'UTR Renilla luciferase suppression, dose response, counter-screen for Shn3 inhibitor project, cell-based, Clone20-Shn3RL, cherry-picked (AID 624133); type: functional
[3] = target: Tyrosyl-DNA phosphodiesterase 2 (Homo sapiens, UniProt O95551); experiment: human TDP2 enzyme inhibitors, dose response, biochemical, epi absorbance, IC50 (AID 743297)
[4] = target: Dual specificity mitogen-activated protein kinase kinase 1 (Homo sapiens, UniProt Q02750); experiment: Navigating the Kinome. Panel member name: MAP2K1; type: functional
[5] = target: Serine/threonine-protein kinase PLK3 (Homo sapiens, UniProt Q9H4B4); type: functional
[6] = target: ALK tyrosine kinase receptor (Homo sapiens, UniProt Q9UM73); type: functional;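 also: ALK tested as one member of a kinase panel screen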
[7] = target: Proto-oncogene tyrosine-protein kinase receptor Ret (Homo sapiens, UniProt P07949); type: functional;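 also: measured within a kinome-wide profiling panel, RET as the panel member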
[8] = target: Serine/threonine-protein kinase D2 (Homo sapiens, UniProt Q9BZL6); type: functional;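 also: measured against PRKD2 as one member of a kinome-wide kinase profiling panel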
[9] = target: Testis-specific serine/threonine-protein kinase 2 (Homo sapiens, UniProt Q96PF2); type: functional;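 also: part of the Navigating the Kinome panel, target entry STK22B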
[10] = target: Tyrosine-protein kinase Lck (Homo sapiens, UniProt P06239); type: functional;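 also: lck was assayed as one member of a kinase panel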
[11] = target: Mitogen-activated protein kinase 8 (Homo sapiens, UniProt P45983); type: functional;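 also: value comes from one member of a kinome-wide kinase profiling panel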
[12] = target: MAP kinase-activated protein kinase 5 (Homo sapiens, UniProt Q8IW41); type: functional;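 also: measured as one member of a kinome panel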
[13] = target: Cell division cycle 7-related protein kinase (Homo sapiens, UniProt O00311); type: functional;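 also: value obtained from a kinome-wide kinase panel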
[14] = target: Mast/stem cell growth factor receptor Kit (Homo sapiens, UniProt P10721); type: functional;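 also: KIT entry within a kinase panel assay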
[15] = target: Serine/threonine-protein kinase PAK 4 (Homo sapiens, UniProt O96013); type: functional;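 also: value obtained within a kinome profiling panel in which PAK4 was one of the panel members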
[16] = target: Tyrosine-protein kinase JAK3 (Homo sapiens, UniProt P52333); type: functional
[17] = target: Testis-specific serine/threonine-protein kinase 1 (Homo sapiens, UniProt Q9BXA7); type: functional
[18] = target: High affinity nerve growth factor receptor (Homo sapiens, UniProt P04629); type: functional;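 also: NTRK1 tested as one member of a kinome-wide profiling panel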
[19] = target: Mitogen-activated protein kinase 13 (Homo sapiens, UniProt O15264); type: functional
[20] = target: Protein kinase C gamma type (Homo sapiens, UniProt P05129); type: functional
[21] = target: Proto-oncogene tyrosine-protein kinase Src (Homo sapiens, UniProt P12931); type: functional;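 also: SRC entry within a kinome-wide kinase profiling panel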
[22] = target: Platelet-derived growth factor receptor beta (Homo sapiens, UniProt P09619); type: functional;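 also: value comes from a kinome panel, with PDGFRB tested as one panel member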
[23] = target: Vascular endothelial growth factor receptor 2 (Homo sapiens, UniProt P35968); type: functional
[24] = target: Cyclin-dependent kinase 5 (Homo sapiens, UniProt Q00535); type: functional;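 also: CDK5 measured as one member of a kinase profiling panel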
[25] = target: Serine/threonine-protein kinase Nek4 (Homo sapiens, UniProt P51957); type: functional
[26] = target: Protein-tyrosine kinase 6 (Homo sapiens, UniProt Q13882); type: functional
[27] = target: Maternal embryonic leucine zipper kinase (Homo sapiens, UniProt Q14680); type: functional
[28] = target: Tyrosine-protein kinase Fyn (Homo sapiens, UniProt P06241); type: functional
[29] = target: Homeodomain-interacting protein kinase 4 (Homo sapiens, UniProt Q8NE63); type: functional
[30] = target: Cyclin-dependent kinase 1 (Homo sapiens, UniProt P06493); type: functional;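 also: Kinome-wide panel profiling, with the target listed as panel member CDC2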
[31] = target: Cyclin-dependent kinase 7 (Homo sapiens, UniProt P50613); type: functional;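 also: value comes from a kinome-wide kinase profiling panel in which CDK7 is one member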
[32] = target: Vascular endothelial growth factor receptor 1 (Homo sapiens, UniProt P17948); type: functional;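 also: measured within a kinome-wide profiling panel, FLT1 as the panel member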
[33] = target: STE20-like serine/threonine-protein kinase (Homo sapiens, UniProt Q9H2G2); type: functional
[34] = target: Lymphokine-activated killer T-cell-originated protein kinase (Homo sapiens, UniProt Q96KB5); type: functional;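 also: value comes from a kinase panel screen in which TOPK was one of the panel members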
[35] = target: Serine/threonine-protein kinase MRCK alpha (Homo sapiens, UniProt Q5VT25); type: functional
[36] = target: Serine/threonine-protein kinase 3 (Homo sapiens, UniProt Q13188); type: functional;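 also: measured as one member of a kinome-wide kinase panel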
Staphylococcus aureus = experiment: Inhibitors of Bacterial Quorum Sensing Structure Activity Relationship (SAR) Analysis: Dose Response Assay. [Related pubchem assays: 700, 527 ]; type: functional, organism-based
[37] = C. albicans growth with fluconazole, confirmation, fluorescence, retest (AID 2467); type: functional, cell-based
[38] = target: 1-acylglycerol-3-phosphate O-acyltransferase ABHD5/Perilipin-5 (Homo sapiens, UniProt Q00G26+Q8WTS1); experiment: Luminescence-based biochemical high throughput dose response assay for inhibitors of the interaction of the lipase co-activator protein, abhydrolase domain containing 5 (ABHD5) with perilipin-5 (MLDP; PLIN5) (2K validation set). [Related pubchem assays (depositor defined):AID493035, AID493241]
Perilipin-1/ABHD5 = Perilipin-1/ABHD5 (Homo sapiens, UniProt O60240+Q8WTS1); experiment: Luminescence-based biochemical high throughput dose response assay for inhibitors of the interaction of the lipase co-activator protein, abhydrolase domain containing 5 (ABHD5) with perilipin-1 (PLIN1) (2K validation set). [Related pubchem assays (depositor defined):AID493027, AID493057]
[39] = CellTiter-Glo luminescent dose response of DLD-1 viability loss (AID 1117352); type: functional
[40] = Glucagon-like peptide 1 release potency, NCI-H716 cell line, dose-response, half-maximal inhibitory concentration (AID 1117344); type: functional, cell-based
Cytochrome P450 2D6 = Cytochrome P450 2D6 (Homo sapiens, UniProt P10635);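 also: CYP2D6 member of a cytochrome P450 panel assay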

Sequence of Serine/threonine-protein kinase PLK3 (Q9H4B4 whole entry): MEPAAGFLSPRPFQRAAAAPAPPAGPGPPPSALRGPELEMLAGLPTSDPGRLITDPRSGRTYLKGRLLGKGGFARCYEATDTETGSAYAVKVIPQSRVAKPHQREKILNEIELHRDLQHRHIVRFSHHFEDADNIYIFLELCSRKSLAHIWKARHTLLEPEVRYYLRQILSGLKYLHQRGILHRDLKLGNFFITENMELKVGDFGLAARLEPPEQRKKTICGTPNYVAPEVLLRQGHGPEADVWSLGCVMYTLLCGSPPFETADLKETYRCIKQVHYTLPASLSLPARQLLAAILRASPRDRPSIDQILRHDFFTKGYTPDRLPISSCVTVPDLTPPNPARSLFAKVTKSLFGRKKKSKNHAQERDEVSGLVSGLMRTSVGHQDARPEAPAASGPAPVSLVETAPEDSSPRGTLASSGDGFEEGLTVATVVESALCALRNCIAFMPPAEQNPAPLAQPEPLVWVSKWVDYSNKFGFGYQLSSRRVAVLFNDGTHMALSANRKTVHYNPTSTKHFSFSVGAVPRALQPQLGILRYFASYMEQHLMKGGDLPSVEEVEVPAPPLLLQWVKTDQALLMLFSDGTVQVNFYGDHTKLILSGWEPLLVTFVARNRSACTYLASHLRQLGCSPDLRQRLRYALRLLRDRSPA
Sequence of Proto-oncogene tyrosine-protein kinase receptor Ret (P07949 whole entry): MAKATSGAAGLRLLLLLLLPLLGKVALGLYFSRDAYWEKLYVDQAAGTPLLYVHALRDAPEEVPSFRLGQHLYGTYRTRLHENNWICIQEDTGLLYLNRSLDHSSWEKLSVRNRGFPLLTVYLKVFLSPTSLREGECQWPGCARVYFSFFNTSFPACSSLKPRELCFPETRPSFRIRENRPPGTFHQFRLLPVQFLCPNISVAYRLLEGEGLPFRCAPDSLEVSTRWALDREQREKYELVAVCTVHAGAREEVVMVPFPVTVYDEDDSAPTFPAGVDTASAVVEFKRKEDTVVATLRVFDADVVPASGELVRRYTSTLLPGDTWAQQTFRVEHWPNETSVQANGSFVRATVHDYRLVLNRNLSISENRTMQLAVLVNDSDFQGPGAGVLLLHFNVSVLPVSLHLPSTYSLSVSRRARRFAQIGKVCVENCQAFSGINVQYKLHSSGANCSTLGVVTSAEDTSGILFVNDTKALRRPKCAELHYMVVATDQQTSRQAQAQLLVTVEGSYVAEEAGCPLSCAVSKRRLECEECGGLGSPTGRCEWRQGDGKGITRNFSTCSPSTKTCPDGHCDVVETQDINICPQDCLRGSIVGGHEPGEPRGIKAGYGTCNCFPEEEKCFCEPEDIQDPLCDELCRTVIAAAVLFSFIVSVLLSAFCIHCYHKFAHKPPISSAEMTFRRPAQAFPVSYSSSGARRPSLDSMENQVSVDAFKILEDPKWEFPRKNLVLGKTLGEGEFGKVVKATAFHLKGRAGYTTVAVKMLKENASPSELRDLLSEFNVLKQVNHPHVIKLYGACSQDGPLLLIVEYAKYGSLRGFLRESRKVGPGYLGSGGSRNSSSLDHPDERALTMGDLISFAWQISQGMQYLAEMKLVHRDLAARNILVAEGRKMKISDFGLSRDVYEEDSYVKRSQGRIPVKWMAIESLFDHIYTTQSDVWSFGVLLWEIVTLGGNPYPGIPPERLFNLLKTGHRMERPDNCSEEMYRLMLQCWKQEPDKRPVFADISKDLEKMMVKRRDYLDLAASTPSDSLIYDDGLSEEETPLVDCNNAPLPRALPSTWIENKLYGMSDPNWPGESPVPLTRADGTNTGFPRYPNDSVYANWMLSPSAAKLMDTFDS
Sequence of Protein-tyrosine kinase 6 (Q13882 whole entry): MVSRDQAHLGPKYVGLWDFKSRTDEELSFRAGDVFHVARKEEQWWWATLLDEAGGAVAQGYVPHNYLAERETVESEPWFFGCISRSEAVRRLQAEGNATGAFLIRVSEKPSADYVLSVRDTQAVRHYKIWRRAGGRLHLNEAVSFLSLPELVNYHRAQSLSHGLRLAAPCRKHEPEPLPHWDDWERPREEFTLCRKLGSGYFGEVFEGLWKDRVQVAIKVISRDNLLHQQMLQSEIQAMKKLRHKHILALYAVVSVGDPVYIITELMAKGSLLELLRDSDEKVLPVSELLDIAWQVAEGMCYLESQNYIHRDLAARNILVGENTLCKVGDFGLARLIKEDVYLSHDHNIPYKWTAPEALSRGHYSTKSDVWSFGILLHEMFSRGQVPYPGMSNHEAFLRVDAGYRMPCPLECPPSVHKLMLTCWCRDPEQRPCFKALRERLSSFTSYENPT
Sequence of Lymphokine-activated killer T-cell-originated protein kinase (Q96KB5 whole entry): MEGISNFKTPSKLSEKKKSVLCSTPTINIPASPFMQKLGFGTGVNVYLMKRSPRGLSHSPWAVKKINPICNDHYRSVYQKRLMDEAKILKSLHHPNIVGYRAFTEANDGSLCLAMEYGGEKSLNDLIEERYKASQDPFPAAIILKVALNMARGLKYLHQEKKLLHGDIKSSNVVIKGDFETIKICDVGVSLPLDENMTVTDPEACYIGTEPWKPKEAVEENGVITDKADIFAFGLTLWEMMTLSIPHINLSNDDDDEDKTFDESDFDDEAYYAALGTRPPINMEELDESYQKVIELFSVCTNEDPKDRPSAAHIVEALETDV
Sequence of Mitogen-activated protein kinase 13 (O15264 whole entry): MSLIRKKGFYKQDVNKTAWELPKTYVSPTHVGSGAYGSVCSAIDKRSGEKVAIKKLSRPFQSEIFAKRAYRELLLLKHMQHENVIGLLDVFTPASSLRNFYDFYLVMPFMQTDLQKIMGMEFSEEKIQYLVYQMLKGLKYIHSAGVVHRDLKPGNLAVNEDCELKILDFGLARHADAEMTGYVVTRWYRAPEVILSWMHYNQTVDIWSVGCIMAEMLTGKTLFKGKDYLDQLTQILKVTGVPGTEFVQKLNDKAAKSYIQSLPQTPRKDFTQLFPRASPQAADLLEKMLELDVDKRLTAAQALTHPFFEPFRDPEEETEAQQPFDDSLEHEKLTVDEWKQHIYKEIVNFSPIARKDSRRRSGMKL
Sequence of Serine/threonine-protein kinase 3 (Q13188 whole entry): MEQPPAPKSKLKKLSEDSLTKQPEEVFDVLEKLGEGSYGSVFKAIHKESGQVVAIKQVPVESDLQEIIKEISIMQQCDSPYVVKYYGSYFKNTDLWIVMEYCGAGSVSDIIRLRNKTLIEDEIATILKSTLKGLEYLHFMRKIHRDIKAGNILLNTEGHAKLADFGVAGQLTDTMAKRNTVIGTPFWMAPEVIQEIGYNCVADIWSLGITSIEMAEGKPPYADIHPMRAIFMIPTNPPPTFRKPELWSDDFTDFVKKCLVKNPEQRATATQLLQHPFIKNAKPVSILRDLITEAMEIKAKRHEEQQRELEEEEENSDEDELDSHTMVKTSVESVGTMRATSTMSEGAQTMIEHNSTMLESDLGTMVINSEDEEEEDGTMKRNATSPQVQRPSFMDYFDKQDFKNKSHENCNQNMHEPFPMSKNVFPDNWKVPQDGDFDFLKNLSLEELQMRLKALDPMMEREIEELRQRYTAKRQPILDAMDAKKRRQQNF
Sequence of Testis-specific serine/threonine-protein kinase 2 (Q96PF2 whole entry): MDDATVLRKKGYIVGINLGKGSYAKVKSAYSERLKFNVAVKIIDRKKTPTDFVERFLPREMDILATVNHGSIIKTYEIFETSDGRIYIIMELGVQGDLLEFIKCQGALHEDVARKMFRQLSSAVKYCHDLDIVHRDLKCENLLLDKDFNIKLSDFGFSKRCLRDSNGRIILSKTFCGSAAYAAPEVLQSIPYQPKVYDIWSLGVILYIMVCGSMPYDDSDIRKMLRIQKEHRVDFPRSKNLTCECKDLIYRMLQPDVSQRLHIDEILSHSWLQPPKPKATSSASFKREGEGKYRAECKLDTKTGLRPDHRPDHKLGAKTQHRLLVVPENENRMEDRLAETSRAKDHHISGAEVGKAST
Sequence of Tyrosine-protein kinase Lck (P06239 whole entry): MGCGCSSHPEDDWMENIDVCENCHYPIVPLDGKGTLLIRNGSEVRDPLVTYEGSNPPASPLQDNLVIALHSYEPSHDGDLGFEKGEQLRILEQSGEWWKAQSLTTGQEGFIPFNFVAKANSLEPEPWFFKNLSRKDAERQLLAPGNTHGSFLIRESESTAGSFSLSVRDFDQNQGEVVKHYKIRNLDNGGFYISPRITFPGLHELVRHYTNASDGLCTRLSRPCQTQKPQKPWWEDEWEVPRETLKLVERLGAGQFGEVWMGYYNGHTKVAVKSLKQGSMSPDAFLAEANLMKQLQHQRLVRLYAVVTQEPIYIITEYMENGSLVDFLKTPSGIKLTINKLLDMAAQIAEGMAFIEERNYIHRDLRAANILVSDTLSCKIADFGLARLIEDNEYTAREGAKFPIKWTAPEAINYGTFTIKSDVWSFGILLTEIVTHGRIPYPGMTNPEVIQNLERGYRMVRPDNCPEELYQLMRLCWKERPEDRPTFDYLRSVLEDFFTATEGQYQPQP
Sequence of Mitogen-activated protein kinase 8 (P45983 whole entry): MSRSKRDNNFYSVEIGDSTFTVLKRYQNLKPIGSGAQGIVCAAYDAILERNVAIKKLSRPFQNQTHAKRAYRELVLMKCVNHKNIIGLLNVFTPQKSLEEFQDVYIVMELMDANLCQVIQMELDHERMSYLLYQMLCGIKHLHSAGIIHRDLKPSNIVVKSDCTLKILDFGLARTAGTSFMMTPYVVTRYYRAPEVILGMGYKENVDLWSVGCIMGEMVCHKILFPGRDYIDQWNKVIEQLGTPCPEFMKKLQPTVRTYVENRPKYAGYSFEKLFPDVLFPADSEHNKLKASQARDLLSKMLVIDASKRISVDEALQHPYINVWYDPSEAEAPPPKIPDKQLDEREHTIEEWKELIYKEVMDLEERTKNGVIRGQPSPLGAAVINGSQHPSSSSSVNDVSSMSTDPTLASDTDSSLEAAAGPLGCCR
Sequence of Cyclin-dependent kinase 5 (Q00535 whole entry): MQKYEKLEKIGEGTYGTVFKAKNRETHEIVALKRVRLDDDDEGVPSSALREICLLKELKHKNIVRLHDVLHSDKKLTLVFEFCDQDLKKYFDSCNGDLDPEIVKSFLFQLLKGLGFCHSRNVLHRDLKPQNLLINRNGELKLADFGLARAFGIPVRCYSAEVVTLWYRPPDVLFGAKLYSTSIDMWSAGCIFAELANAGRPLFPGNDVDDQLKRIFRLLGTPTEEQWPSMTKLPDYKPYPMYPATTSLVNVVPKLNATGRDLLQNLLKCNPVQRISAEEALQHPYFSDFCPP

SMILES: O=C1C=C(N2CCOCC2)c2ccccc2C1=O
EC50 [1]: 8.37 µM (active)
IC50 (HEK293): 10.3 µM (inactive)
IC50 (Phospholipase A2): > 80 µM (inactive)
AC50 [2]: 8.28 µM (active)
IC50 [3]: 2.55 µM (active)

Ki [4]: > 3.16 µM (inactive)
Ki [5]: > 7.94 µM (inactive)
Ki [6]: > 3.98 µM (inactive)
Ki [7]: > 2.51 µM (inactive)
Ki [8]: 7.94 µM (active)
Ki [9]: > 1.58 µM (inactive)
Ki [10]: > 5.01 µM (inactive)
Ki [11]: > 5.01 µM (inactive)
Ki [12]: > 1.58 µM (inactive)
Ki [13]: > 1.26 µM (inactive)
Ki [14]: > 1.26 µM (inactive)
Ki [15]: > 5.01 µM (inactive)
Ki [16]: > 3.98 µM (inactive)
Ki [17]: > 1.58 µM (inactive)
Ki [18]: > 2.51 µM (inactive)
Ki [19]: > 7.94 µM (inactive)
Ki [20]: > 7.94 µM (inactive)
Ki [21]: > 2 µM (inactive)
Ki [22]: > 2 µM (inactive)
Ki [23]: > 2.51 µM (inactive)
Ki [24]: 0.398 µM (active)
Ki [25]: > 6.31 µM (inactive)
Ki [26]: > 2.51 µM (inactive)
Ki [27]: > 1.58 µM (inactive)
Ki [28]: > 3.98 µM (inactive)
Ki [29]: > 7.94 µM (inactive)
Ki [30]: 2 µM (active)
Ki [31]: 1 µM (active)
Ki [32]: > 2.51 µM (inactive)
Ki [33]: > 10 µM (inactive)
Ki [35]: > 10 µM (inactive)
Ki [36]: > 7.94 µM (inactive)
SMILES: N#Cc1ccc2[nH]c(O)c(-c3ccc(CN4CCOCC4)cn3)c2c1 [AZD-1080]
Ki [34]: > 10 µM (inactive)

SMILES: CCc1oc2ccccc2c1C(=O)c1cc(Br)c(O)c(Br)c1 [BENZBROMARONE]
IC50 (Staphylococcus aureus): 0.131 µM (active)
EC50 [37]: 0.059 µM (active)
IC50 [38]: 18.8 µM (inactive)
IC50 (Perilipin-1/ABHD5): 15 µM (inactive)
IC50 [39]: 0.268 µM (active)
IC50 [40]: > 40 µM (inactive)
AC50 (Cytochrome P450 2D6): inactive
